ChEMBL document CHEMBL1131838, “8-acenaphthen-1-yl-1-phenyl-1,3,8-triaza-spiro[4.5]decan-4-one derivatives as orphanin FQ receptor agonists” (Bioorg Med Chem Lett, 1999)
Active and inactive are the calls of the source. No cut-off for these calls is given here.

Experiments:
[1] = target: 5-hydroxytryptamine receptor 1D (Homo sapiens, UniProt P28221); test: Affinity against 5-hydroxytryptamine 1D receptor alpha
[2] = target: 5-hydroxytryptamine receptor 2A (Homo sapiens, UniProt P28223); test: Affinity against 5-hydroxytryptamine 2A receptor
[3] = target: 5-hydroxytryptamine receptor 7 (Homo sapiens, UniProt P34969); test: Affinity against 5-hydroxytryptamine 7 receptor
[4] = target: 5-hydroxytryptamine receptor 6 (Homo sapiens, UniProt P50406); test: Affinity against 5-hydroxytryptamine 6 receptor
[5] = target: T1, 5-hydroxytryptamine receptor 2C (Homo sapiens, UniProt P28335); test: Affinity against 5-hydroxytryptamine 2C receptor
T1 sequence (P28335 whole entry): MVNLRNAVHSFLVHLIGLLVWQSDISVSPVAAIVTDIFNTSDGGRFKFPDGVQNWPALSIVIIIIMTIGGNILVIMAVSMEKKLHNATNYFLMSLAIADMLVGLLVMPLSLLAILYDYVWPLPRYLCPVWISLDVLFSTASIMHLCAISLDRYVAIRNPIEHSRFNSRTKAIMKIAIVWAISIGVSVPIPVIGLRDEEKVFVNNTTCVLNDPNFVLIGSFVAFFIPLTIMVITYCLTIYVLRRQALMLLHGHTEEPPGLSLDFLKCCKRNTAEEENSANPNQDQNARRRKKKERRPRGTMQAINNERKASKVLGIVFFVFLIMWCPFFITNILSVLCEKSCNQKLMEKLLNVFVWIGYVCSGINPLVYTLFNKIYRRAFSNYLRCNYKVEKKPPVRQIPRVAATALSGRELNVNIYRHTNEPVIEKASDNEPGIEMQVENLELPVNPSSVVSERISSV

[6] = target: GABA-A receptor; anion channel; test: Binding affinity for GABA-A central benzodiazepine receptor; format: protein-complex assay
[7] = target: T2, Corticotropin-releasing factor receptor 1 (Rattus norvegicus, UniProt P35353); test: Affinity against Corticotropin releasing factor receptor 1
T2 sequence (P35353 whole entry): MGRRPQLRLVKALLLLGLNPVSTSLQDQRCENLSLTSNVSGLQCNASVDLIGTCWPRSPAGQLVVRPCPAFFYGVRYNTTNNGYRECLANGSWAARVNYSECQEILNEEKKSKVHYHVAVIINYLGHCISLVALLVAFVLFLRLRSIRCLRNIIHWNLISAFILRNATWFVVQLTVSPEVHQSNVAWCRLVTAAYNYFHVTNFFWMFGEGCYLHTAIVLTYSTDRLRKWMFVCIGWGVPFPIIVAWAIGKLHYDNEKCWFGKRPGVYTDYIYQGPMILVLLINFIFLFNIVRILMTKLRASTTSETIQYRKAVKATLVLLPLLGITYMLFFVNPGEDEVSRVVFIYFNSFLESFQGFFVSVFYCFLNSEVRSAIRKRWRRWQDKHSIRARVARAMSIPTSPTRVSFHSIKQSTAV

[8] = target: T3, D(4) dopamine receptor (Homo sapiens, UniProt P21917); test: Affinity against Dopamine receptor D4.4
T3 sequence (P21917 whole entry): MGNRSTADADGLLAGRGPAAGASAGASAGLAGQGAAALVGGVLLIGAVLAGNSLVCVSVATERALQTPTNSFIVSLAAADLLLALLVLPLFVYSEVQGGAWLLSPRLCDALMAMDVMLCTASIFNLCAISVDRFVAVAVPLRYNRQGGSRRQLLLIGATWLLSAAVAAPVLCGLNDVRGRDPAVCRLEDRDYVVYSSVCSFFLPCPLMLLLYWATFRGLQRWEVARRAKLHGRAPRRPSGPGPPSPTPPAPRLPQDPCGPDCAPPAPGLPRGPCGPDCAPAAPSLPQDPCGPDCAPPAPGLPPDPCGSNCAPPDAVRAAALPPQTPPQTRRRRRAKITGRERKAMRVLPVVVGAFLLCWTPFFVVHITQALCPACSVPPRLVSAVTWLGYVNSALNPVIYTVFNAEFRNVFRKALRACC

[9] = target: D(3) dopamine receptor (Homo sapiens, UniProt P35462); test: Affinity against Dopamine receptor D3
[10] = test system: Rattus norvegicus; test: Forced motor performance in rats was determined and grip strength was reported at 3.2 mg/kg by ip administration; format: functional; details: route intraperitoneal
[11] = test system: Rattus norvegicus; test: Forced motor performance in rats was determined and grip strength was reported at 0.32 mg/kg by ip administration; format: functional; details: route intraperitoneal
[12] = test system: Rattus norvegicus; test: Forced motor performance in rats was determined and grip strength was reported at 1 mg/kg by ip administration; format: functional; details: route intraperitoneal
[13] = test system: Rattus norvegicus; test: Spontaneous locomotion in rats was determined and distance moved was reported at dose 1 mg/kg by ip administration; format: functional; details: route intraperitoneal
[14] = test system: Rattus norvegicus; test: Spontaneous locomotion in rats was determined and distance moved was reported at dose 3.2 mg/kg by ip administration; format: functional; details: route intraperitoneal
[15] = test system: Rattus norvegicus; test: Forced motor performance in rats was determined and traction test score was reported at 0.32 mg/kg by ip administration; format: functional; details: route intraperitoneal
[16] = test system: Rattus norvegicus; test: Forced motor performance in rats was determined and traction test score was reported at 1 mg/kg by ip administration; format: functional; details: route intraperitoneal
[17] = test system: Rattus norvegicus; test: Forced motor performance in rats was determined and traction test score was reported at 3.2 mg/kg by ip administration; format: functional; details: route intraperitoneal
[18] = Affinity against Corticotropin releasing factor receptor 2 alpha
[19] = target: D(2) dopamine receptor (Homo sapiens, UniProt P14416); test: Affinity against Dopamine receptor D2
[20] = target: D(1A) dopamine receptor (Mus musculus, UniProt Q61616); test: Affinity against Dopamine receptor D1
[21] = test system: Rattus norvegicus; test: Spontaneous locomotion in rats was determined and distance moved was reported at dose 0.32 mg/kg by ip administration; format: functional; details: route intraperitoneal
[22] = Compound was evaluated for the opioid receptor agonistic activity at dose 1-10 mg/kg by intraperitoneal administration; Inactive; format: functional, organism-based

Chain of 5-hydroxytryptamine receptor 1D (P28221 whole entry): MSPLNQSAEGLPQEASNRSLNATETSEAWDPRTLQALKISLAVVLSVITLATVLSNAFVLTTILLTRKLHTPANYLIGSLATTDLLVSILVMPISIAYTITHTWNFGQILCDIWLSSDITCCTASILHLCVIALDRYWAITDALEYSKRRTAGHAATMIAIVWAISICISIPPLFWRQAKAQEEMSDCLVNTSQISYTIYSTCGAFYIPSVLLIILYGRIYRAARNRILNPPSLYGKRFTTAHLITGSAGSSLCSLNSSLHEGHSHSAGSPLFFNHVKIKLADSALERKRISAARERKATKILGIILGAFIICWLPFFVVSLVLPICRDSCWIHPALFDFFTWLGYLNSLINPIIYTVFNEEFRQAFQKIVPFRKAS
Chain of D(3) dopamine receptor (P35462 whole entry): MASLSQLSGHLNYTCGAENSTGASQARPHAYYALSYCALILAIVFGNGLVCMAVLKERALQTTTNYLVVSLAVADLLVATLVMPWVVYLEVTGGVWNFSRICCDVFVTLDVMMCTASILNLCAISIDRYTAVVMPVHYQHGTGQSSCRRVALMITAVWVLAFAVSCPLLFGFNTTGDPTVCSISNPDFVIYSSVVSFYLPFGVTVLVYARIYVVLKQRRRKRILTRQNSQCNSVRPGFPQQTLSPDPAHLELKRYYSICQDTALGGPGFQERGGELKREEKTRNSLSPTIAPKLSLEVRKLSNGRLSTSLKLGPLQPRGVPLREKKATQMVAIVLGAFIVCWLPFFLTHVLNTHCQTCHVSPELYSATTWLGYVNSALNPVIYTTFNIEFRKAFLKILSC
Chain of 5-hydroxytryptamine receptor 7 (P34969 whole entry): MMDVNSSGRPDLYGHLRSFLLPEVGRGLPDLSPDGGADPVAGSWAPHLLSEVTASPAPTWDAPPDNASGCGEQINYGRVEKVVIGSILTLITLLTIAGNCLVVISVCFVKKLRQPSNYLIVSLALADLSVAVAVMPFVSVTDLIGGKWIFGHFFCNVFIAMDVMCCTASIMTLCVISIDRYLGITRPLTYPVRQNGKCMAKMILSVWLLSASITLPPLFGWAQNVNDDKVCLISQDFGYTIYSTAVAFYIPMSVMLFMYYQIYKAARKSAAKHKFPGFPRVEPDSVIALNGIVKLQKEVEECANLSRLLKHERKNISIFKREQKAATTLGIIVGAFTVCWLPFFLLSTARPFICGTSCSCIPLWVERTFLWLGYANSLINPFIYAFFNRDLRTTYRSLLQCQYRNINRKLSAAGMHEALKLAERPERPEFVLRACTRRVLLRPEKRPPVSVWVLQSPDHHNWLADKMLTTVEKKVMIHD
Chain of 5-hydroxytryptamine receptor 6 (P50406 whole entry): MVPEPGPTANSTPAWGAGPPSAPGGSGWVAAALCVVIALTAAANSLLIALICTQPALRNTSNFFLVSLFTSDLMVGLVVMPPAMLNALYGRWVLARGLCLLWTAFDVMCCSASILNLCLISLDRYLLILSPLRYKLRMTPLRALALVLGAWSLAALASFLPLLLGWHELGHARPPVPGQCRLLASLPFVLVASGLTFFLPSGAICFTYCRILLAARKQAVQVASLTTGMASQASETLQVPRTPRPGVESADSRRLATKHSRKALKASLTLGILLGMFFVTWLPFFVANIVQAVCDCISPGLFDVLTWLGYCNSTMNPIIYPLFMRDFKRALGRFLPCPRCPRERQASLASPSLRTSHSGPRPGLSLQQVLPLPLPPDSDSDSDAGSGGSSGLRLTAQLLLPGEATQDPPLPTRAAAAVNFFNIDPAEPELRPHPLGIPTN
Chain of D(1A) dopamine receptor (Q61616 whole entry): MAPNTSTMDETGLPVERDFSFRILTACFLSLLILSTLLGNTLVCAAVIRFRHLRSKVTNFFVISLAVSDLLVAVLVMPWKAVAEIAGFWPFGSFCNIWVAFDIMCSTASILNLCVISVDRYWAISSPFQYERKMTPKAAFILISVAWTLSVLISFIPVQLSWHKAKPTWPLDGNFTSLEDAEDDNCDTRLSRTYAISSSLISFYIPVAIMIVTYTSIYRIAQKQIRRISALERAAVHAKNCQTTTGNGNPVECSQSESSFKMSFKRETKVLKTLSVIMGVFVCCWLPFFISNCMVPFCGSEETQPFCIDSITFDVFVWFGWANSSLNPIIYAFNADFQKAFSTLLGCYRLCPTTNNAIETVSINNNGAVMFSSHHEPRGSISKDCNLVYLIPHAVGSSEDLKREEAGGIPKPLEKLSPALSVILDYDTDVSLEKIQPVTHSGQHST
Chain of 5-hydroxytryptamine receptor 2A (P28223 whole entry): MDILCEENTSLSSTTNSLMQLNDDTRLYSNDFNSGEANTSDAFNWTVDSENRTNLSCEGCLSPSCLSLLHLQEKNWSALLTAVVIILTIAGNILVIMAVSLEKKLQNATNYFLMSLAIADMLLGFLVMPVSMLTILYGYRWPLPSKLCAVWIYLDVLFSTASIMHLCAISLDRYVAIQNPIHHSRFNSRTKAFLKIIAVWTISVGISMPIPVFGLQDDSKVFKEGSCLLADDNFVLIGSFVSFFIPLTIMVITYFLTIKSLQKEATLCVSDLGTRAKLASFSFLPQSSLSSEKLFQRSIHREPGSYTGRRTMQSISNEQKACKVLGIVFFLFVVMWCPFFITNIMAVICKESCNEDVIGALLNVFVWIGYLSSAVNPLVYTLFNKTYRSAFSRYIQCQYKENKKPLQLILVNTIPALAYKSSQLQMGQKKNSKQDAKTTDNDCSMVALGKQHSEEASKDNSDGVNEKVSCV
Chain of D(2) dopamine receptor (P14416 whole entry): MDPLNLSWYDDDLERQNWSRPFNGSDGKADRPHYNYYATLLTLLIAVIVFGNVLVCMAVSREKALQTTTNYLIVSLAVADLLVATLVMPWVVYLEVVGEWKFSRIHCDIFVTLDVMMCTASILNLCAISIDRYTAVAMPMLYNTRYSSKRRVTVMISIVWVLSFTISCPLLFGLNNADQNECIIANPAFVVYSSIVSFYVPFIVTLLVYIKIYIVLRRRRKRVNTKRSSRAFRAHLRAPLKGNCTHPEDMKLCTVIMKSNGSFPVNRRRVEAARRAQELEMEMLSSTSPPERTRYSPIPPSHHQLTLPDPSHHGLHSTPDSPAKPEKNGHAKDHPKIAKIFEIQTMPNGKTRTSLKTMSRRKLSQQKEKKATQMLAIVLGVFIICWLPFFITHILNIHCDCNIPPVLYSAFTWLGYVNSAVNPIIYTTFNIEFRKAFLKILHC

**Q.** What does the source list for `O=C1NCN(c2ccccc2)C12CCN([C@@H]1Cc3cccc4cccc1c34)CC2`?
**A.** Log Ki [1]: < -6.5; Log Ki [2]: < -6.5; Log Ki [3]: < -6.5; Log Ki [4]: < -6.5; Log Ki [5]: < -6.5; Log Ki [6]: < -6.5; Log Ki [7]: < -6.5; Log Ki [8]: < -6.5; Log Ki [9]: < -6.5; Grip strength [10]: 479 g; Grip strength [11]: 516.25 g; Grip strength [12]: 521.63 g; Locomotion [13]: 1465.79 cm; Locomotion [14]: 1141.08 cm; Traction test [15]: 4 score; Traction test [16]: 4 score; Traction test [17]: 3.75 score; Log Ki [18]: < -6.5; Log Ki [19]: < -6.5; Log Ki [20]: < -6.5; Locomotion [21]: 1412.39 cm

**Q.** With `CN1CC[C@]23c4c5ccc(O)c4O[C@H]2[C@@H](O)C=C[C@H]3[C@H]1C5` as the compound, how does the Activity [22] read?
**A.** The Activity was “inactive”.
